Assay [1] deals with T1, progesterone receptor (Homo sapiens, UniProt P06401).
T1 sequence (P06401 165-933 limits assumed): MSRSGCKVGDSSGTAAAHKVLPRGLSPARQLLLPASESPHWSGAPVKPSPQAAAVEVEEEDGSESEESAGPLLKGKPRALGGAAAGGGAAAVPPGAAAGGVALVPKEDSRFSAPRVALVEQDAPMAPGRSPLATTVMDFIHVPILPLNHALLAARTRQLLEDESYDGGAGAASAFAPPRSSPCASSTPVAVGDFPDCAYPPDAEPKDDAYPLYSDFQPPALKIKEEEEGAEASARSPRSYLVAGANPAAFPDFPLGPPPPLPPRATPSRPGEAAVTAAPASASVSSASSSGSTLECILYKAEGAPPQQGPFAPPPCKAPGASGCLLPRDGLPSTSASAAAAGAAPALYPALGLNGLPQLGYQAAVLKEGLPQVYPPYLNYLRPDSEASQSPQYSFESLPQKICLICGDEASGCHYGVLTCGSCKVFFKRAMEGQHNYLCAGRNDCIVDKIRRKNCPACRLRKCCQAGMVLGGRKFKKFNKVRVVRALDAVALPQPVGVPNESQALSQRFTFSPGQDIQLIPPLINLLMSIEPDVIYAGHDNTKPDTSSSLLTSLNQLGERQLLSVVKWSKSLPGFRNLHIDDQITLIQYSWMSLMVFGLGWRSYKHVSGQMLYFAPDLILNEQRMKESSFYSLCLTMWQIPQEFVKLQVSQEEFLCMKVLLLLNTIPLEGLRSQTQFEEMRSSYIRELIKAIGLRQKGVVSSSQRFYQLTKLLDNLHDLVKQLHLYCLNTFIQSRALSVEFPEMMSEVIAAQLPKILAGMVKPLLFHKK
The assay is described as follows: PR transactivation assay, antagonistic activity (PR luciferase reporter). The format is cell-based. Conditions: for Ratio of IC50's: PR agonism / PR antagonism. As for the experimental part: (§1) Transactivation Assay for Progesterone Agonist and Antagonistic Activity (See Table 1).
Experimental: PR transactivation studies was carried out in human breast cancer (T47D) cells, grown in RPMI medium without phenol red and 5% charcoal stripped fetal bovine serum, transiently transfected with PR luciferase reporter (CCS-6043L signal reporter assay kit, Qiagen). The cells were stimulated R5020 as PR agonist and treated in the presence or absence of the tested compounds for 24 hours.

The target in assay [2] is T2, progesterone receptor (Homo sapiens, UniProt P06401).
T2 sequence (P06401 679-933 limits assumed): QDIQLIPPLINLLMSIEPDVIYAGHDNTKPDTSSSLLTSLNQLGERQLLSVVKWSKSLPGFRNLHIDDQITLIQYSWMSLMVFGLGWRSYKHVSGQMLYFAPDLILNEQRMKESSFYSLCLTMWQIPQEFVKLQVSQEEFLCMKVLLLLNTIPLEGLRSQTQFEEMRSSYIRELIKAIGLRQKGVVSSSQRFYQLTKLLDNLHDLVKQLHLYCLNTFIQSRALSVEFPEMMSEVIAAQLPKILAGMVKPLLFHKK
The assay is described as follows: PR transactivation assay, agonistic activity (PR luciferase reporter). Type of assay: cell-based. Conditions: T47D cells; for EC50: stimulant R5020, read-out: EC50. As for the experimental part:
as §1
Experimental: PR transactivation studies was carried out in human breast cancer (T47D) cells, grown in RPMI medium without phenol red and 5% charcoal stripped fetal bovine serum, transiently transfected with PR luciferase reporter (CCS-6043L signal reporter assay kit, Qiagen). The cells were stimulated R5020 as PR agonist and treated in the presence or absence of the tested compounds for 24 hours. The effect was calculated using dual luciferase assay kit (Promega, WI)) based on RU486 as full antagonist and R5020 as agonist for progesterone receptor.
Background: A reporter such as luciferase makes a cellular process visible.

Assay [3] deals with ovariectomized C57BL/6 mice. The assay is described as follows: Uterine weight bioassay in ovariectomized mice. The format is in vivo, mouse. Conditions: combined with E2, 4 weeks. As for the experimental part: (§2) In order to determine the in vivo estrogenic action of EC313 in uterine weight and benign breast development, we have used standard uterine weight bioassay and mammary gland whole mount analysis in ovariectomized mice. […] Five different measurements were obtained from each whole-mount image. Ductal length (millimeters) was measured by drawing and measuring a straight line caliper from the most distal point of the ductal network to the nipple and end buds were identified as large bulbous profiles located at the termini of ducts. […] The reduced estrogenic effect by the treatment of EC313 was further confirmed by the gene expression studies.
(§3) Whole mounts of mammary glands of overictomized C57BL/6 mice treated with E2, EC313 0.1 and 1.0 mg/kg. Magnification—upper panel—10×, lower panel—20×. B, Uterine weight of mice treated for 4 weeks with E2, EC313 0.1 and 1.0 mg/kg. Data represented are average uterine weight in milligrams±SD (*P<0.001 vs E2-control). C-D, Total duct length and terminal end bud counts in the mammary gland whole mounts after 4 weeks of the treatment with test compounds (*P<0.001 vs E2-control).

In assay [4] the test system is ovariectomized C57BL/6 mice. The assay is described as follows: Mammary gland whole mount analysis in ovariectomized mice. The format is in vivo, mouse. Conditions: 0.1 and 1.0 mg/kg with E2, 4 weeks. Here is the method:
as §2, §3

For assay [5], the system named is ovariectomized C57BL/6 mice. In words: Gene expression in mammary glands of ovariectomized mice. The format is in vivo, mouse. Here is the method: as §2
Gene expression in mammary glands of ovariectomized C57BL/6 mice treated with E2, EC313 0.1 and 1.0 mg/kg. Columns are average of relative amount (ΔΔCt) of tested mRNA±SD (n=6) (**P<0.01 vs E2-control, *P<0.001 vs E2-control).

The subject of assay [6] is estradiol-primed immature female rabbits. In words: McPhail and anti-McPhail tests in rabbits. The format is in vivo, rabbit. Conditions: for progestational activity (McPhail test): estradiol-primed immature female rabbit; for antiprogestational activity (anti-McPhail test): immature female rabbit. From the text: The McPhail test in the immature female rabbit is a well-established model to test progestatational and antiprogestational activity [McPhail 1934).

Assay [7] relates to guinea pig. In words: Guinea pig model (ovulation inhibition, uterine weight, vagina, ovary, classification). Type of assay: in vivo. Conditions: for ER-/PR balance vagina.: dose at which the dominance is seen / Uterine Weight at max. dose (10.mg/day s.c.) / ER-/PR balance vagina. / Ovary (CL): guinea pig; for Classification: guinea pig model; for ER-/PR balance vagina. / Ovary (CL): at max. dose (10.mg/day s.c.); for Ovary (CL): CL = corpora lutea.

In assay [8] the test system is guinea pig. Conditions: in vivo; cited from earlier work.
The mark [9] stands for this setting: T47D cells, stimulant R5020, read-out: IC50 Average of 2 expts.
Setting [10] is: Table 2 summary, read-out: PR antagonism (IC50).

Like-named read-outs stand apart in the source and are kept apart here.

Here are results for 2 compounds from patent publication US9850273B2, “Combination of estrogens plus antiprogestins with significant partial agonistic effect as an effective treatment of menopausal symptoms and for prevention of the occurrence of breast cancer” (Evestra, Inc., priority 2014, dated 2017).

Broadly, the IC50 is the concentration that gives 50% inhibition. Broadly, the EC50 is the concentration at which the effect is half-maximal. Consider `C[C@]12C[C@H](c3ccc(-c4ccoc4)cc3)C3=C4CCC(=O)C=C4CCC3C1CCC21OCCC1=C(F)F` (stereo partly shown) [EC-313], for which the “Ratio of IC50's” value on progesterone receptor [1] came out at 9.4. The “Antagonist rel to RU486 (%)” value at progesterone receptor [1] (T47D cells, stimulant R5020) stood at 240%. Besides, the half-inhibitory concentration (IC50) at progesterone receptor [1] (setting [9]) came to 0.5 nM. The IC50 on progesterone receptor [1] (setting [10]) is 0.5 nM. In addition, on progesterone receptor [2], the “Agonist rel to R5020 (%)” value was found to be 7.8% and the 50% effective concentration (EC50) was 4.75 nM. Further, in assay [3] (0.1 mg/kg), the “E2 stimulated uterine weight” value is reported as “reduced by two fold”. Further, the “E2 stimulated uterine weight” value in assay [3] (1.0 mg/kg) is “three fold”. In addition, the “ductal branching and terminal end buds in whole mount analysis” value in assay [4] is “dose dependently reduced”. The “PR regulated genes amphiregulin (AREG) and RANKL in mammary glands” value in assay [5] (higher dose) is given as “significantly inhibited”. Moreover, the “PR regulated genes amphiregulin (AREG) and RANKL in mammary glands” value in assay [5] (lower doses) was “upregulated in a moderate fashion”. Besides, the “E2 regulated genes cyclin D1 and PS2 in mammary glands” value in assay [5] (treatment combined with E2) was “downregulated”. In assay [6], the “progestational activity (McPhail test)” value is “active both as a progestin agonist and antagonist”; the “antiprogestational activity (anti-McPhail test)” value is “active both as a progestin agonist and antagonist”. Further, in the assay with guinea pig [7], the “ER-/PR balance vagina.: dose at which the dominance is seen” value is “≧0.1 mg”, the Classification entry is listed as “mesoprogestin”, the “Uterine Weight at max. dose (10.mg/day s.c.)” value was 1.13 and the ER-/PR balance vagina. entry is listed as “PR-domin”. Moreover, in the assay on guinea pig [7], the “Ovary (CL)” value was “degenerated”. The “Classification (previous findings, Nickisch et al, 2013)” value in the assay on guinea pig [8] is reported as “mesoprogestin”.

With `C[C@]12C[C@H](c3ccc(-c4cccnc4)cc3)C3=C4CCC(=O)C=C4CCC3C1CCC21OCCC1=C(F)F` (stereo partly shown) [EC-312], the “Ratio of IC50's” value on progesterone receptor [1] was 81.7. Besides, on progesterone receptor [1] (T47D cells, stimulant R5020), the “Antagonist rel to RU486 (%)” value is 160%. The half-inhibitory concentration (IC50) at progesterone receptor [1] (setting [9]) turned out to be 0.625 nM. At progesterone receptor [1] (setting [10]), the IC50 came out at 0.63 nM. Moreover, at progesterone receptor [2], the “Agonist rel to R5020 (%)” value worked out at 0.73% and the EC50 came to 51.5 nM. For the same compound, the “progestational activity relative to CDB 2914” value in assay [6] (assumed from McPhail test) is “more than ten-fold higher”. Also, in assay [6], the “progestational activity (McPhail test)” value was “active both as a progestin agonist and antagonist”; the “antiprogestational activity (anti-McPhail test)” value was “active both as a progestin agonist and antagonist”. In addition, in the assay on guinea pig [7], the “ER-/PR balance vagina.: dose at which the dominance is seen” value was “≧0.1 mg”, the Classification result is reported as “mesoprogestin”, the “Uterine Weight at max. dose (10.mg/day s.c.)” value came out at 1.03 and the ER-/PR balance vagina. entry is “PR-domin”. Further, in the assay on guinea pig [7], the “Ovary (CL)” value was “degenerated”.
